Measured values from ChEMBL document CHEMBL1201862, “PubChem BioAssay data set” (2004).
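Tested at 5 concentrations; 48 h exposure; 96-well plates; endpoints linearly interpolated, else capped at highest concentration. GI50: concentration for 50% inhibition of growth.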 The source made the active and inactive calls. Cut-off read from the data, not from the text of the source: active = GI50 up to about 1.1 µM and inactive = higher.

Key:
Assay in all cases: growth of human tumour cells (NCI), 48 h
[1] = tested on: SNB-75
[2] = tested on: RXF 393
[3] = tested on: SF-268
[4] = tested on: MDA-MB-435
[5] = tested on: OVCAR-5
[6] = tested on: SNB-19
[7] = tested on: UO-31
[8] = tested on: TK-10
[9] = tested on: SN12C
[10] = tested on: LOX IMVI
[11] = tested on: SK-MEL-28
[12] = tested on: SW-620
[13] = tested on: SK-OV-3
[14] = tested on: SR
[15] = tested on: A549
[16] = tested on: HCT-116
[17] = tested on: U-251
[18] = tested on: DU-145
[19] = tested on: UACC-62
[20] = tested on: EKVX
[21] = tested on: NCI-H522
[22] = tested on: OVCAR-8
[23] = tested on: NCI-H23
[24] = tested on: NCI-H460
[25] = tested on: 786-0
[26] = tested on: HCC 2998
[27] = tested on: SF-539
[28] = tested on: A498
[29] = tested on: KM12
[30] = tested on: PC-3
[31] = tested on: MOLT-4
[32] = tested on: HCT-15
[33] = tested on: CAKI-1
[34] = tested on: IGROV-1
[35] = tested on: NCI/ADR-RES
[36] = tested on: HOP-62
[37] = tested on: SK-MEL-2
[38] = tested on: K562
[39] = tested on: NCI-H226
[40] = tested on: OVCAR-3
[41] = tested on: ACHN
[42] = tested on: Malme-3M
[43] = tested on: COLO 205
[44] = tested on: RPMI-8226
[45] = tested on: HOP-92
[46] = tested on: M14
[47] = tested on: T47D
[48] = tested on: HL-60
[49] = tested on: HT-29
[50] = tested on: MDA-MB-231
[51] = tested on: OVCAR-4
[52] = tested on: UACC-257
[53] = tested on: MCF7
[54] = tested on: CCRF-CEM
[55] = tested on: BT-549
[56] = tested on: MDA-N
[57] = tested on: SF-295
[58] = tested on: SK-MEL-5

`CCN1CCN(c2nc3ccccc3nc2C(=O)c2ccc(OC)c(OC)c2)CC1` was tested, and the GI50 [1] was 12.9 µM (inactive), the GI50 [2] was 12.2 µM (inactive) and the GI50 [3] was 19.3 µM (inactive). The GI50 [4] was 25.4 µM (inactive), the GI50 [5] was 41.7 µM (inactive) and the GI50 [6] was 24 µM (inactive). For the same compound, the GI50 [7] was 13.7 µM (inactive), the GI50 [8] was 22.4 µM (inactive) and the GI50 [9] was 42.1 µM (inactive). The GI50 [10] was 12.7 µM (inactive), the GI50 [11] was 13.5 µM (inactive) and the GI50 [12] was 15.7 µM (inactive). The GI50 [13] was 12.1 µM (inactive), the GI50 [14] was 7.06 µM (inactive) and the GI50 [15] was 13.6 µM (inactive). The GI50 [16] was 5.31 µM (inactive), the GI50 [17] was 14.8 µM (inactive) and the GI50 [18] was 30.5 µM (inactive). For the same compound, the GI50 [19] was > 100 µM (inactive), the GI50 [20] was 19 µM (inactive) and the GI50 [21] was 12 µM (inactive). The GI50 [22] was 12.6 µM (inactive), the GI50 [23] was 24.3 µM (inactive) and the GI50 [24] was 6.81 µM (inactive). For the same compound, the GI50 [25] was 10.7 µM (inactive), the GI50 [26] was 2.3 µM (inactive) and the GI50 [27] was 1.73 µM (inactive). The GI50 [28] was 27.7 µM (inactive), the GI50 [29] was 15.4 µM (inactive) and the GI50 [30] was 32.7 µM (inactive). The GI50 [31] was 5.16 µM (inactive), the GI50 [32] was 13.7 µM and the GI50 [33] was 82.4 µM (inactive). For the same compound, the GI50 [34] was 16.6 µM (inactive), the GI50 [35] was 1.6 µM (inactive) and the GI50 [36] was 21.4 µM (inactive). For the same compound, the GI50 [37] was 47.8 µM (inactive), the GI50 [38] was 12.6 µM (inactive) and the GI50 [39] was 22.3 µM (inactive). For the same compound, the GI50 [40] was 22.2 µM (inactive), the GI50 [41] was 9.91 µM (inactive) and the GI50 [42] was 16.4 µM (inactive). The GI50 [43] was 1.5 µM (inactive), the GI50 [44] was 10.1 µM (inactive) and the GI50 [45] was 7.48 µM (inactive). For the same compound, the GI50 [46] was 16.2 µM (inactive), the GI50 [47] was > 100 µM (inactive) and the GI50 [48] was 44.1 µM (inactive). For the same compound, the GI50 [49] was 12.6 µM (inactive), the GI50 [50] was 14.8 µM (inactive) and the GI50 [51] was 10 µM (inactive). The GI50 [52] was 21.9 µM (inactive), the GI50 [53] was 18.2 µM (inactive) and the GI50 [54] was 10 µM (inactive). For the same compound, the GI50 [55] was 21.2 µM (inactive), the GI50 [56] was 25.4 µM (inactive) and the GI50 [57] was 11.9 µM (inactive).
`CC(=O)C1C(=O)C(=O)N(c2ccc(Cl)c(Cl)c2)C1=O` (stereo not given) was tested, and the GI50 [1] was > 100 µM (inactive), the GI50 [4] was > 100 µM (inactive) and the GI50 [5] was > 100 µM (inactive). The GI50 [6] was > 100 µM (inactive), the GI50 [7] was 99.3 µM (inactive) and the GI50 [8] was > 100 µM (inactive). The GI50 [9] was > 100 µM (inactive), the GI50 [10] was > 100 µM (inactive) and the GI50 [11] was > 100 µM (inactive). For the same compound, the GI50 [12] was > 100 µM (inactive), the GI50 [13] was > 100 µM (inactive) and the GI50 [15] was > 100 µM (inactive). The GI50 [16] was > 100 µM (inactive), the GI50 [17] was > 100 µM (inactive) and the GI50 [18] was > 100 µM (inactive). For the same compound, the GI50 [19] was > 100 µM (inactive), the GI50 [20] was > 100 µM (inactive) and the GI50 [22] was > 100 µM (inactive). For the same compound, the GI50 [23] was > 100 µM (inactive), the GI50 [24] was > 100 µM (inactive) and the GI50 [25] was > 100 µM (inactive). The GI50 [26] was > 100 µM (inactive), the GI50 [27] was > 100 µM (inactive) and the GI50 [29] was > 100 µM (inactive). The GI50 [30] was > 100 µM (inactive), the GI50 [31] was > 100 µM (inactive) and the GI50 [32] was over 100 µM. For the same compound, the GI50 [33] was > 100 µM (inactive), the GI50 [34] was > 100 µM (inactive) and the GI50 [35] was > 100 µM (inactive). The GI50 [36] was > 100 µM (inactive), the GI50 [37] was > 100 µM (inactive) and the GI50 [39] was > 100 µM (inactive). The GI50 [40] was > 100 µM (inactive), the GI50 [41] was > 100 µM (inactive) and the GI50 [43] was > 100 µM (inactive). For the same compound, the GI50 [45] was > 100 µM (inactive), the GI50 [46] was > 100 µM (inactive) and the GI50 [47] was > 100 µM (inactive). The GI50 [58] was > 100 µM (inactive), the GI50 [48] was > 100 µM (inactive) and the GI50 [49] was > 100 µM (inactive). The GI50 [50] was > 100 µM (inactive), the GI50 [52] was > 100 µM (inactive) and the GI50 [53] was > 100 µM (inactive). For the same compound, the GI50 [55] was > 100 µM (inactive), the GI50 [56] was > 100 µM (inactive) and the GI50 [57] was > 100 µM (inactive).
